Results published in patent US20260232644A1, “Compositions Comprising an Inhibitor of Galectin-3” (University of Liverpool, priority 2023, published 2026).
Counter-ions that a name gives are not always drawn.

Tests used:
[1] = test system: human breast cancer cells; details: by suppressing activation of NFKB induced by TNFα; cited from earlier work
human colon cancer cells = details: cited from earlier work
[2] = test system: human pancreatic cancer PANC1 cells; assay: Pancreatic cancer cell adhesion to basement matrix; type: cell-based; details: for Effect on adhesion of galectin-3 knockout (Gal3KO) PANC1 cells: CRISPR/Cas9 Gal3KO cells; for Effect on adhesion of non-transfected (con) PANC1 cells: control cells; for Inhibition of PANC1 cell adhesion to matrix: different concentrations
Protocol: (§1) Nanty-six well plates were coated with 50 μl Matrigel (1:30 diluted in PBS) at 37° C. for 1 hour.
(§2) Cancer cells, pre-labelled with fluorescent die DiI at 37° C. for 20 minutes, were washed twice with PBS and resuspended into 3×10^4 cells/ml in serum-free medium. The matrix-coated 96-well plates were washed twice with PBS before introduction of 100μ cell suspension with different concentrations of the inhibitors or PBS/DMSO (control) for 1 hour at 37° C. The plates were washed twice with PBS before three randomly selected Field of Views (FOVs) were recorded by fluorescence microscope and number of adhesion cells were quantified by Image J.
(§3) MDAMB-231 or PANC-1 cells were seeded into 6-well plate (2×10^5 cells) and cultured at 37° C. for 24 hour. Galectin-3 CRISPR Cas9 Knockout plasmid (2 μg) and galectin-3 HDR plasmid (2 μg) was mixed with Plasmid Transfection Medium (21 μl) for 5 minutes before addition to a mixture of lipofectamine STEM Transfection Reagent (STEM00001) (1 μl) and Plasmid Transfection Medium (25 μl) for 10 minutes at room temperature. The cells in the 6-well plates were washed and introduced with the Plasmid DNA/Lipofectamine STEM Transfection Reagent complex at 37° C. for 24 hour. The culture medium was replaced with fresh antibiotics-free medium for further 24 hour before introduction of 10 μg/mL puromycin-containing medium every three days. Successful co-transfection of the CRISPR/Cas9 KO Plasmid and HDR Plasmid was confirmed by expression of red fluorescence protein of the cells. Galectin-3 knockout in the cells was further confirmed by immunoblotting.

[3] = test system: human colon cancer SW620 cells; assay: Galectin-3-mediated SW620 cell adhesion to HUVECs; type: cell-based; details: Galectin-3 2 μg/ml, various concentrations
Protocol: HUVEC cells at 1×10^5 cells/ml in EGM medium were seeded into 24 well plates pre-inserted with 13 mm glass coverslip. The cells were incubated at 37° C. at 5% CO2 for 24 hr for monolayer formation. AGA19+ or SW620 cell suspension (5×10^5 cells/ml in DMEM) was introduced with 5 μl/ml fluorescent cell labelling solution DiL for 30 min at 37° C. The fluorescent labelled cells were washed twice with PBS and resuspended into 1×10^5 cells/ml in DMEM. The cancer cell suspension was then introduced with galectin-3 (2 μg/ml) and various concentrations of the compound inhibitors at 37° C. for 1 hr. The wells were carefully washed twice with PBS to remove the non-adhesion cells before the cells in the wells were fixed with 2% paraformaldehyde for 10 min. The glass coverslip was carefully removed from the plate, placed on a glass slide. After addition of fluorescence mounting medium containing DAPI, fluorescence labelled cells were quantified under a fluorescence microscope.

full-length galectin-3 = biological target: T1, full-length galectin-3 (Homo sapiens, UniProt P17931); assay: Tryptophan Fluorescence Spectroscopy (TFS) binding affinity, full-length Galectin-3
T1 construct: made in house; host or cells: E. coli
Protocol: The binding affinity of the inhibitors to galectin-3 was determined by Intrinsic Tryptophan Fluorescence Spectroscopy (TFS) exactly as we described recently [Sindrewicz, P., et al., Intrinsic tryptophan fluorescence spectroscopy reliably determines galectin-ligand interactions. Sci Rep, 2019. 9(1): p. 11851]. The Galectin-3 concentration used was 10 μM and the inhibitor titration concentrations were from 0 to 224 μM. DMSO/control buffer (PBS with 2 mM EDTA) titrations were performed and used for background subtraction.

[4] = test system: THP-1 differentiated macrophages; assay: Galectin-3-induced TNFα secretion from macrophages (ELISA); type: cell-based; details: Galectin-3 10 μg/ml, various concentrations
Protocol: (§4) Effect of the compound inhibitors on secretion of pro-inflammatory cytokines from macrophages were assessed in THP-1 monocyte differentiated macrophages. THP-1 cells were induced to differentiation into macrophages by incubation with 10 ng/ml PMA for 48 h at 37° C. The culture medium was then replaced with fresh medium without or with 10 μg/ml galectin-3 and various concentrations of the compound inhibitors for 24 h at 37° C. The culture medium was collected and the concentrations of TNFα and IL-1β in the culture medium were determined by TNFα and IL-1β ELISA.

[5] = test system: human colon cancer SW620 cells; assay: SW620 cell invasion through HUVECs (transwell); type: cell-based; details: Galectin-3 1 ug/ml, transwells, several concentrations
Protocol: HUVECs were plated at a density of 1.5×10^4 cells in 8 μm pore transwells in 24-well plate and cultured for three days to allow formation of tight monolayer. The integrity of HUVEC monolayer was confirmed by measuring TEER and only monolayers with TEER reading>800 Ω/cm^2 were used for the invasion assay. AGA19+ or SW620 cell suspension (5×10^5 cells/ml in DMEM) was introduced with 5 μl/ml fluorescent cell labelling solution DiL for 30 min at 37° C. The fluorescence labelled cells were washed twice with PBS and resuspended into 1×10^5 cells/ml in DMEM. […] The cells at the upper side of the trans-well inserts were gently removed with cotton swabs. The cells migrated to the bottom side of the transwells were fixed with 2% paraformaldehyde for 10 min. The trans-well membrane was removed and placed on glass slides. After addition of fluorescence mounting medium containing DAPI, the fluorescence labelled cells on the membrane were quantified under a fluorescence microscope.

[6] = test system: human umbilical vein endothelial cells (HUVECs); assay: Vascular cell tubule formation (angiogenesis); type: cell-based; details: Galectin-3 2 μg/ml, various concentrations
Protocol: Matrigel matrix (50 μl) was added to 96-well plates for 60 min at 37° C. to allow gel formation. HUVEC cells (1×10^5 cells/ml in 1:1 EGM/EBM2 media) was introduced to the plates without or with galectin-3 (2 μg/ml) or different concentrations of compound inhibitors for 24 hr at 37° C. Endothelial cell tube formation was examined with Laser Microscope. The total number of branching points and the sum of the lengths of tubes were measured.

[7] = test system: THP-1 differentiated macrophages; assay: Galectin-3-induced IL-1β secretion from macrophages (ELISA); type: cell-based; details: Galectin-3 10 μg/ml, various concentrations
Protocol: as §4

Galectin-3 = biological target: T2, Galectin-3 (Homo sapiens, UniProt P17931); assay: Galectin-3 binding to asialofetuin (ASF) ELISA; details: for Inhibition of Galectin-3 binding to its ligand asialofetuin (ASF): Galectin-3 5 μg/ml, ASF 20 μg/ml, different concentrations of compound, ELISA; for IC50: read-out: IC50, inhibition of Galectin-3 binding to its ligand
T2 construct: made in house; host or cells: E. coli
Protocol: (§5) Effect of the inhibitors on galectin binding to its ligand asialo fetuin (ASF) was measured by galectin ELISA. Nanty-six well plates were coated overnight with 20 μg/ml ASF in coating buffer (15 mM Na2CO3 17 mM NaHCO3 pH 9.6.). The wells were washed twice with PBS and incubated with blocking buffer (1% BSA in PBS) for 1 hr. The supernatants were removed and replaced with 5 μg/ml recombinant human galectin without or with different concentrations of the compound inhibitors or lactose in blocking buffer for 1 hr at room temperature. The wells were washed and incubated with 1 μg/ml anti-galectin antibody for 2 hr. Following addition of HRP-conjugated secondary antibody for 1 hr, FAST OPD development solution was added for 15-20 minutes. The reaction was terminated by addition of 4M sulphuric acid. The plates were read at 492 nm (reference wavelength 595 nm) by a microplate reader.

vascular HUVECs = assay: LDH release cytotoxicity assay, HUVECs; type: cell-based, human; details: various concentrations
Protocol: (§6) SW620 cells (5×10^4 cells/ml) were seeded into 96-well plate in DMEM (and incubated at 37° C. 5% CO2 for 24 hr. HUVECs (1.0×10^5 cells/ml) was seeded in EBM medium and incubated for 24-36 hr until they formed a monolayer. Compound inhibitors at different concentrations were then introduced to the cells (10× lysis buffer was included as maximum LDH activity control) for 24 hr. The culture medium was transferred to a new plate and was mixed with equal volume of reaction mixture provided in the kit for 30 min at room temperature before the absorbance was measured at 490 nm (reference 680 nm) by a spectrophotometer.

[8] = test system: triple-negative breast cancer MDA-MB-231 cells; assay: Triple-negative breast cancer cell adhesion to basement matrix; type: cell-based, human; details: for Effect on adhesion of galectin-3 knockout (Gal3KO) MDA-MB-231 cells: CRISPR/Cas9 Gal3KO cells; for Effect on adhesion of non-transfected (con) MDA-MB-231 cells: control cells; for Inhibition of MDA-MB-231 cell adhesion to matrix: different concentrations
Protocol: as §1, §2, §3

[9] = test system: human colon cancer SW620 cells; assay: LDH release cytotoxicity assay, SW620; type: cell-based; details: various concentrations
Protocol: as §6

[10] = test system: human lung cancer H1975 cells; assay: Lung cancer cell adhesion to basement matrix; type: cell-based; details: for IC50: Homo sapiens, NCI-H1975; for Inhibition of H1975 cell adhesion to matrix: different concentrations
Protocol: as §1, §2

Galectin-8 = biological target: T3, Galectin-8 (Homo sapiens, UniProt O00214); assay: Galectin-8 binding to asialofetuin ELISA; details: Gal-8 5 μg/ml, ASF 20 μg/ml
T3 construct: purchased R&D Systems (Abingdon, UK)
T3 sequence (O00214 1-317): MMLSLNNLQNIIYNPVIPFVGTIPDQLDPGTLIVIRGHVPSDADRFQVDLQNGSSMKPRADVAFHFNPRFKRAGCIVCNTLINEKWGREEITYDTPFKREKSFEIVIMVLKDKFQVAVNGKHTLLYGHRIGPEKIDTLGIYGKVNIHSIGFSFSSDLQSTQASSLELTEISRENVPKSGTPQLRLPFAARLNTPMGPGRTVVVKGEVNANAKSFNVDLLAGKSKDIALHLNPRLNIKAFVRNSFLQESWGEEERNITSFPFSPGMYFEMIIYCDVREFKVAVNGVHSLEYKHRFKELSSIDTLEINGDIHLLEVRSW
Protocol: as §5

T2 sequence (P17931 whole entry): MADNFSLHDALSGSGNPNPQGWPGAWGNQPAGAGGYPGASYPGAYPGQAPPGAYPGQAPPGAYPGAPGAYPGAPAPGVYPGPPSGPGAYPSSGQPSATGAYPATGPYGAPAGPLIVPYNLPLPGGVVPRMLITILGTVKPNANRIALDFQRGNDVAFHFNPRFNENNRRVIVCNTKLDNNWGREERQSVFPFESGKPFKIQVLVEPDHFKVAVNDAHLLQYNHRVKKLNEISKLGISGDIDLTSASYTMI
T1 sequence (P17931 whole entry): as above

Row | SMILES | Effect on adhesion of galectin-3 knockout (Gal3KO) PANC1 cells [2] | Effect on adhesion of non-transfected (con) PANC1 cells [2] | Inhibition of PANC1 cell adhesion to matrix [2] | Inhibition of SW620 cell adhesion to HUVECs [3] | Kd (full-length galectin-3) [µM] | Inhibition of galectin-3-induced TNFα secretion [4] | Inhibition of galectin-3-mediated invasion of SW620 cells through HUVECs [5] | Inhibition of tubule numbers [6] | Inhibition of vascular tubule length [6] | Inhibition of galectin-3-induced IL-1β secretion [7] | Inhibition of Galectin-3 binding to its ligand asialofetuin (ASF) (Galectin-3) | IC50 (Galectin-3) [µM] | Cytotoxicity to HUVEC cells (LDH release) (vascular HUVECs) | Effect on adhesion of galectin-3 knockout (Gal3KO) MDA-MB-231 cells [8] | Effect on adhesion of non-transfected (con) MDA-MB-231 cells [8] | Inhibition of MDA-MB-231 cell adhesion to matrix [8] | Cytotoxicity to SW620 cells (LDH release) [9] | IC50 [10] [µM] | Inhibition of H1975 cell adhesion to matrix [10] | also measured
1 | CO/N=C1\CN(c2nc3c(cc2F)c(=O)c(C(=O)O)cn3C2CC2)CC1CN (stereo not drawn) [Formula W, Gemifloxacin] |  |  |  |  |  |  |  |  |  |  |  |  |  |  |  |  |  |  |  | Effect on migration, invasion and metastasis in human breast cancer cells [1]: inhibit migration, invasion and metastasis; Effect on migration and invasion of human colon cancer cells (human colon cancer cells): inhibit migration and invasion
2 | Cc1c(O)cccc1C(=O)N[C@@H](CSc1ccccc1)[C@H](O)CN1C[C@H]2CCCC[C@H]2C[C@H]1C(=O)NC(C)(C)C [Formula Y, Nelfinavir mesylate] | lost their inhibitory effect | significant reduction | dose-dependent inhibition | dose-dependent inhibition | ~90 | dose-dependent inhibition | dose-dependent inhibition | dose-dependent inhibition | dose-dependent inhibition | dose-dependent inhibition | inhibit galectin-3 binding to ASF in a dose-dependent manner | ≤ 10 | little or low toxicity | lost their inhibitory effect | significant reduction | dose-dependent inhibition | little or low toxicity | ~5 | dose-dependent inhibition | IC50 ([8]; Homo sapiens, MDA-MB-231): ~10 µM
3 | CN(C)CCOc1ccc(/C(=C(/CCCl)c2ccccc2)c2ccccc2)cc1 [Formula Z, Toremifene citrate] | lost their inhibitory effect | significant reduction | dose-dependent inhibition | dose-dependent inhibition | ~35 | dose-dependent inhibition | dose-dependent inhibition | dose-dependent inhibition | dose-dependent inhibition | dose-dependent inhibition | inhibit galectin-3 binding to ASF in a dose-dependent manner | ≤ 10 | low cytotoxicity | lost their inhibitory effect | significant reduction | dose-dependent inhibition | low cytotoxicity | 5 to 10 | dose-dependent inhibition | 
4 | OC[C@H]1O[C@@H](O[C@H]2[C@H](O)[C@@H](O)C(O)O[C@@H]2CO)[C@H](O)[C@@H](O)[C@H]1O (stereo partly drawn) [lactose] |  |  |  |  |  |  |  |  |  |  |  |  |  |  |  |  |  |  |  | Effect on Galectin-8 binding to asialofetuin (Galectin-8): dose-dependently inhibits
